Data reported in patent US6608086B2, “Dihydropyridines and new uses thereof” (Synaptic Pharmaceutical Corporation, priority 1993, dated 2003).
Structures can show the parent of a compound that is named as a salt. Where two headings read alike, the source gives them in different places.

Key:
[1] = target: T1, α1A Human Adrenergic Receptor (Homo sapiens, UniProt P25100); experiment: Radioligand binding, [3H]prazosin, cloned human α1A adrenergic receptor; settings: pKi alpha-1 1a
T1 construct: The entire coding region of α1A (1719 bp); expressed in transfected cells
T1 sequence (P25100 1-572): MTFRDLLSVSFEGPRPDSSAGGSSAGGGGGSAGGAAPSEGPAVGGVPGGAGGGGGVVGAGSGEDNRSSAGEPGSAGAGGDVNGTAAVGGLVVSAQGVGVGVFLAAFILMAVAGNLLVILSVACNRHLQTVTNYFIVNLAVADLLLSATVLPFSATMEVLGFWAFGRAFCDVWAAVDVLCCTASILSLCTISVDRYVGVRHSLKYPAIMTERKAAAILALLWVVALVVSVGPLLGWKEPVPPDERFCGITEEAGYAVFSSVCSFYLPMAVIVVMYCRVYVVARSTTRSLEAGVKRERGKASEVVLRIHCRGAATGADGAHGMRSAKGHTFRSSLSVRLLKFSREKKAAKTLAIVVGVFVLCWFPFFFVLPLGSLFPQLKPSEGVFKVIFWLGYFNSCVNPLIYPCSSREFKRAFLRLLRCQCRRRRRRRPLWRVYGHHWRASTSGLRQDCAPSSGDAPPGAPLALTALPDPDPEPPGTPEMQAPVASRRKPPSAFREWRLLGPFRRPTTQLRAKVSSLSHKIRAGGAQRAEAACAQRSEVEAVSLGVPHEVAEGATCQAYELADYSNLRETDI
Summary of the method: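 Membranes from LM(tk−) cells transfected with cloned human α1A receptor, prepared in 50 mM Tris-HCl, 1 mM MgCl2, 0.1% ascorbic acid pH 7.5, were incubated with 0.5 nM [3H]prazosin at 37° C for 20 min. Nonspecific binding was defined with 10 μM phentolamine; bound ligand was separated by GF/B filtration.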

α2C receptor = target: T2, α2C receptor (Homo sapiens, UniProt P18825); experiment: Competition binding, [3H]rauwolscine, human α2C receptor
T2 construct: host or cells: LM(tk-) cells, line L-α2C
T2 sequence (P18825 1-462): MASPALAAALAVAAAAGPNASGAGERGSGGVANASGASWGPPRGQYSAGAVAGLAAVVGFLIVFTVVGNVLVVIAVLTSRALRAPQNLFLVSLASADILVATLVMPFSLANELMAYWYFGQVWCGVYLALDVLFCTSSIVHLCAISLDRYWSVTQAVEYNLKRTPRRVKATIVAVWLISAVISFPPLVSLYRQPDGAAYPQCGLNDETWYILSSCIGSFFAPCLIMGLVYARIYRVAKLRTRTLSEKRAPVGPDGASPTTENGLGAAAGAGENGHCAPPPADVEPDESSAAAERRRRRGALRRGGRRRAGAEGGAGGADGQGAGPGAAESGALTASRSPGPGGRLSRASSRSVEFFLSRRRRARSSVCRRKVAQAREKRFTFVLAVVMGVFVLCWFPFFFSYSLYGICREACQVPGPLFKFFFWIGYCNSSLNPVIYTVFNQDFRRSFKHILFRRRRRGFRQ
Summary of the method: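 Filter-bound [3H]rauwolscine (0.5 nM) was measured after equilibrium competition with test antagonists on lysates of LM(tk−) cells stably transfected with each human α2 subtype. Buffer: 25 mM glycylglycine, pH 7.6 at room temperature; 10 μM phentolamine gave nonspecific binding.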

L-type calcium channel = target: T3, L-type calcium channel (Rattus norvegicus, UniProt P22002); experiment: Competition binding of [3H]nitrendipine to membrane fragments of rat cardiac muscle
T3 construct: membrane fragments of rat cardiac muscle; from tissue; host or cells: rat cardiac muscle membranes
T3 sequence (P22002 whole entry, other chains not shown, the tested form may be a part): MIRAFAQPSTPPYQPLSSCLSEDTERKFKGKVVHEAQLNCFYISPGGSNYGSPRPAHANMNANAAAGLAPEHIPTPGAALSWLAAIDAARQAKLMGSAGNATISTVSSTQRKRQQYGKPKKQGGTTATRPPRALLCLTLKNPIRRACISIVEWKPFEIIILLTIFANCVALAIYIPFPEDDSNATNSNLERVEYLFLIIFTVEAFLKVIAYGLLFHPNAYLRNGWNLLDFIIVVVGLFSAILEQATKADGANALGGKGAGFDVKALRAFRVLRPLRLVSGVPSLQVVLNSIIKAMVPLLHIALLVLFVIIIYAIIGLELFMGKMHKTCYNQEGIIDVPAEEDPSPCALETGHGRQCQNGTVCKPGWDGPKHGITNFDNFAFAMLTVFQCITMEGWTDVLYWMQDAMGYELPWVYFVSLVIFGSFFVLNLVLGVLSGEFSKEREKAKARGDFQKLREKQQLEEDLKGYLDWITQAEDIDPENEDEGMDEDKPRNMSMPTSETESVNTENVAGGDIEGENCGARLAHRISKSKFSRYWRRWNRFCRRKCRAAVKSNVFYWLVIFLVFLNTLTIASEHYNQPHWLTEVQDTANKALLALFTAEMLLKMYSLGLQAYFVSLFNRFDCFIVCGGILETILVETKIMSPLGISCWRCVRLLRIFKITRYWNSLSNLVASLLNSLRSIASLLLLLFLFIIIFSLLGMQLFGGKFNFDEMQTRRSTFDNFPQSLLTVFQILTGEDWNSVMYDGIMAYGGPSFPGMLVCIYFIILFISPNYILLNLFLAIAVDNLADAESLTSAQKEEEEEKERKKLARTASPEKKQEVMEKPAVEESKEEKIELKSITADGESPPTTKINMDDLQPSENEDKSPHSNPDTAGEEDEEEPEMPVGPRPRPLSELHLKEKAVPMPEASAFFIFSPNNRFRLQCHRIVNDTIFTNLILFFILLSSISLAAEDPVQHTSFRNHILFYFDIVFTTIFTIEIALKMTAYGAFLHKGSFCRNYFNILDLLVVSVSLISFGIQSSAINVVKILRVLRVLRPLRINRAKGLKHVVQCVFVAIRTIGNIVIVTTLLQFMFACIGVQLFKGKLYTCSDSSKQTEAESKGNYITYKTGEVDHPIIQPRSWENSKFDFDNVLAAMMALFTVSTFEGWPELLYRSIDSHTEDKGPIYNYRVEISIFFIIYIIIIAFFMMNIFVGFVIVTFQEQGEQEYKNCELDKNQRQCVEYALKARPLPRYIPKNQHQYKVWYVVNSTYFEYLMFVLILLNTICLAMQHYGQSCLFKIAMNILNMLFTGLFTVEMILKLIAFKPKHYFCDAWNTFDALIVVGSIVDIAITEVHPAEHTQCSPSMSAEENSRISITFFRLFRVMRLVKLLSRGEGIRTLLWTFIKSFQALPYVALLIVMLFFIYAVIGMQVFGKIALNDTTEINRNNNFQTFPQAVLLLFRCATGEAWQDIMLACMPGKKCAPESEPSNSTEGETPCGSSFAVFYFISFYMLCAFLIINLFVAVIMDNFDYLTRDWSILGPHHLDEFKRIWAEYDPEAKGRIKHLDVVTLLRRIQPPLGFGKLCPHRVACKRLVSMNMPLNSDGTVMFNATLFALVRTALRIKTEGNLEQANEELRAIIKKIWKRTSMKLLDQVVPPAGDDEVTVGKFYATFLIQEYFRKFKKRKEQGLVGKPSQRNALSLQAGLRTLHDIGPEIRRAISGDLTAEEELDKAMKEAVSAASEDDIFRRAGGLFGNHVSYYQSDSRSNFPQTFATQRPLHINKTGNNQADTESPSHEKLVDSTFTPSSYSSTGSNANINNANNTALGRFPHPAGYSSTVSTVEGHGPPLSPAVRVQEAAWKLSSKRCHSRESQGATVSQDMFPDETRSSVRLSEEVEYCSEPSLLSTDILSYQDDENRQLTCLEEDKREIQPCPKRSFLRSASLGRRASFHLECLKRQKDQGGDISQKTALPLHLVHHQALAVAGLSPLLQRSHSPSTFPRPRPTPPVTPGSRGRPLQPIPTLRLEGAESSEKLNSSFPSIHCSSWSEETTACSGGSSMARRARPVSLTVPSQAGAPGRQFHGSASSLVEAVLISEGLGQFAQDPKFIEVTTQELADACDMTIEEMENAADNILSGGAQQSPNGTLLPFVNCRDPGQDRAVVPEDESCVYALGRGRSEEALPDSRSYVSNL
T3 sequence (P54290 25-944 partner limits assumed, other chains not shown): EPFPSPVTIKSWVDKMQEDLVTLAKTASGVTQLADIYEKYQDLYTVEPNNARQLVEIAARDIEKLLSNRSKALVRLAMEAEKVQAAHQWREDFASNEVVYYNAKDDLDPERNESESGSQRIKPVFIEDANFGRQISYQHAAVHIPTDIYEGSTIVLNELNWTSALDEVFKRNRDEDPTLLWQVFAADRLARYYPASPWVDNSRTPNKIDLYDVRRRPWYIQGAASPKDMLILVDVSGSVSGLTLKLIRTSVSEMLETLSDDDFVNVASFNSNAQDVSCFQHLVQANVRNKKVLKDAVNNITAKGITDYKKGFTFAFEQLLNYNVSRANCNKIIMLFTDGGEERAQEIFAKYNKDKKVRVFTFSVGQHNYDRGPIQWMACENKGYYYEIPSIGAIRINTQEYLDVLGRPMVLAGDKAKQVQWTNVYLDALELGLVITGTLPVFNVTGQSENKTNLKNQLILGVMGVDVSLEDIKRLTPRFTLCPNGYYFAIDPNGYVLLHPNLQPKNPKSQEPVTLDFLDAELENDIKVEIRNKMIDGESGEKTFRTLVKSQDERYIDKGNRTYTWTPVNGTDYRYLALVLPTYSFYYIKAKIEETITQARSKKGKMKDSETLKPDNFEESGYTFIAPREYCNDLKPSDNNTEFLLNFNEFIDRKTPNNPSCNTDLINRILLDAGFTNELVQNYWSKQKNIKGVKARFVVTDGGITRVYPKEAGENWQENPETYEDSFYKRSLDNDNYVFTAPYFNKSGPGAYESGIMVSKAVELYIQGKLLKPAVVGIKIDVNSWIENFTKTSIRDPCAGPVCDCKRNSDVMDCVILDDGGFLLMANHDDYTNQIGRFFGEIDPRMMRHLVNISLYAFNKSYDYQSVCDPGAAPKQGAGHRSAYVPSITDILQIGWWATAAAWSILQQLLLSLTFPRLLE
T3 sequence (P54290 945-1091 partner limits assumed, other chains not shown): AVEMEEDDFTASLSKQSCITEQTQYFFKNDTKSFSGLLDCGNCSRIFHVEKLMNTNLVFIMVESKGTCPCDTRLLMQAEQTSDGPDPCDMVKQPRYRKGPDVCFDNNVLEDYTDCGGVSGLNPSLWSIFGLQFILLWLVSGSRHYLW

[2] = [3H]prazosin, cloned human receptor in LM(tk-) cell membranes, SEM and n in lines below
[3] = [3H]rauwolscine, LM(tk-) cell line L-α2C, SEM and n in lines below, read-out: pKi alpha-2 2c (converted)
[4] = [3H]nitrendipine, rat cardiac muscle membranes, SEM and n in lines below, read-out: pKi Ca (converted)
[5] = [3H]prazosin, cloned human α1A receptor, LM(tk−) cell membranes
[6] = pKi alpha-2 2c, [3H]rauwolscine, human α2C receptor, LM(tk−) cells
[7] = [3H]nitrendipine, rat cardiac muscle membrane fragments, L-type calcium channel, read-out: pKi Ca (converted)
[8] = [3H]rauwolscine, human α2C receptor, LM(tk−) cells, read-out: pKi alpha-2 2c (converted)

Structure (SMILES): CCC1=C(C(N)=O)C(c2ccc([N+](=O)[O-])cc2)C(C(=O)NCCCN2CCC(c3ccc(OC)cc3)(c3ccc(OC)cc3)CC2)=C(CC)N1 (stereo not drawn) [Example 103, 5-Carboxamido-2,6-diethyl-1,4-dihydro-3-{N-[3-(4,4-bis-(4-methoxyphenyl)piperidin-1-yl)propyl]}carboxamido}-4-(4-nitrophenyl)pyridine hydrochloride]
- Ki [1]: 2.51 µM
- Ki (α2C receptor; pKi alpha-2 2c): 0.269 µM
- Ki (L-type calcium channel; pKi Ca): 0.178 µM

Structure (SMILES): COC(=O)C1=C(C)NC(C)=C(C(=O)NCCCN2CCC(c3ccccc3)(c3ccccc3)CC2)C1c1ccncc1 (stereo not drawn) [Example 5, 1,4-Dihydro-5-methoxycarbonyl-2,6-dimethyl-3-(N-(3-(4,4-diphenylpiperidin-1-yl)propyl)carboxamido)-4-(4-pyridyl)pyridine]
- Ki [1]: 1.82 µM
- Ki (α2C receptor; pKi alpha-2 2c): 24.5 µM
- Ki (L-type calcium channel; pKi Ca): 4.57 µM

Structure (SMILES): COC(=O)C1=C(C)NC(C)=C(C(=O)NCCCN2CCC(c3ccccc3)(c3ccccc3)CC2)C1c1ccc(Cl)cc1 (stereo not drawn) [Example 10, 4-(4-Chlorophenyl)-1,4-dihydro-5-methoxycarbonyl-2,6-Dimethyl-5-(N-(3-(4,4-diphenylpiperidin-1-yl)propyl)carboxamido)pyridine]
- Ki [1]: 0.447 µM
- Ki (α2C receptor; pKi alpha-2 2c): 1.23 µM
- Ki (L-type calcium channel; pKi Ca): 7.59 µM

Structure (SMILES): COC(=O)C1=C(C)NC(C)=C(C(=O)NCCCN2CCC(c3ccccc3)(c3ccccc3)CC2)C1c1ccc(C)cc1 (stereo not drawn) [Example 19, 1,4-Dihydro-3-methoxycarbonyl-1,6-dimethyl-4-(4-methylphenyl)-5-(N-(3-(4,4-diphenylpiperidin-1-yl)propyl)carboxamido)pyridine]
- Ki [1]: 0.316 µM
- Ki (α2C receptor; pKi alpha-2 2c): 0.417 µM
- Ki (L-type calcium channel; pKi Ca): 7.41 µM

Structure (SMILES): COC(=O)C1=C(C)NC(C)=C(C(=O)NCCCN2CCC(c3ccccc3)(c3ccccc3)CC2)C1c1ccc(F)cc1 (stereo not drawn) [Example 20, 4-(4-Fluorophenyl)-1,4-dihydro-3-methoxycarbonyl-2,6-dimethyl-5-(N-(3-(4,4-diphenylpiperidin-1-yl)propyl)carboxamido)pyridine]
- Ki [1]: 1.35 µM
- Ki (α2C receptor; pKi alpha-2 2c): 0.813 µM
- Ki (L-type calcium channel; pKi Ca): 1.15 µM

Structure (SMILES): COC(=O)C1=C(C)NC(C)=C(C(=O)NCCCN2CCC(c3ccccc3)(c3ccccc3)CC2)C1C1CCCCC1 (stereo not drawn) [Example 6]
- Ki [1]: 1.12 µM
- Ki (α2C receptor; pKi alpha-2 2c): 0.24 µM
- Ki (L-type calcium channel; pKi Ca): 1.58 µM

Structure (SMILES): COC(=O)C1=C(C)NC(C)=C(C(=O)NCCCN2CCC(c3ccccc3)(c3ccccc3)CC2)C1c1ccc([N+](=O)[O-])c(OC)c1 (stereo not drawn) [Example 29, 1,4-Dihydro-3-methoxycarbonyl-4-(3-methoxy-4-nitrophenyl)-2,6-dimethyl-5-(N-(3-(4,4-diphenylpiperidin-1-yl)propyl)carboxamido)pyridine]
- Ki [1, 2]: 0.263 µM
- Ki (α2C receptor; [3]): 0.398 µM
- Ki (L-type calcium channel; [4]): 13.8 µM

Structure (SMILES): CC1=C(C#N)C(c2ccc([N+](=O)[O-])cc2)C(C(=O)NCCCN2CCC(c3ccccc3)(c3ccccc3)CC2)=C(C)N1 (stereo not drawn) [Example 37]
- Ki [1]: 0.692 µM
- Ki (α2C receptor; pKi alpha-2 2c): 0.575 µM
- Ki (L-type calcium channel; pKi Ca): 1.35 µM

Structure (SMILES): COC(=O)C1=C(C)NC(C)=C(C(=O)NCCCN2CCC(c3ccccc3)(c3ccccc3)CC2)C1c1ccc([N+](=O)[O-])c(C)c1 (stereo not drawn) [Example 28]
- Ki [1, 2]: 0.437 µM
- Ki (α2C receptor; [3]): 0.631 µM
- Ki (L-type calcium channel; [4]): 17.4 µM

Structure (SMILES): CCC1=C(C(=O)NCCCN2CCC(c3ccccc3)(c3ccccc3)CC2)C(c2cccc(OC)c2)C(C(N)=O)=C(C)N1 (stereo not drawn) [Example 113, 5-Carboxamide-2-ethyl-1,4-dihydro-4-(3-methoxyphenyl)-6-methyl-3-(N-(3-(4,4-diphenylpiperidin-1-yl)propyl)carboxamido)-pyridine]
- Ki [1, 5]: 0.692 µM
- Ki (α2C receptor; [6]): 0.316 µM
- Ki (L-type calcium channel; [7]): 1000 µM

Structure (SMILES): CCC1=C(C(=O)NCCCN2CCC(c3ccccc3)(c3ccccc3)CC2)C(c2cccc(OC)c2)C(C(=O)NCCCN2CCC(c3ccccc3)(c3ccccc3)CC2)=C(CC)N1 [Example 112, 2,6-Diethyl-1,4-dihydro-4-(3-methoxyphenyl)-3,5-bis(N-(3-(4,4-diphenylpiperidin-1-yl)propyl)carboxamido)-pyridine]
- Ki [1, 5]: 0.0302 µM
- Ki (α2C receptor; [6]): 0.269 µM
- Ki (L-type calcium channel; [7]): 0.0575 µM

Structure (SMILES): CCC1=C(C(N)=O)C(c2ccc([N+](=O)[O-])cc2)C(C(=O)NCCCN2CCC3(CC2)C(=O)NCN3c2ccccc2)=C(CC)N1 (stereo not drawn) [Example 105, 5-Carboxamido-2,6-diethyl-1,4-dihydro-4-(4-nitrophenyl)-3-{N-[3-(1-phenyl-4-oxo-1,3,8-triazaspiro[4.3]decan-8-yl)propyl]}carboxamidopyridine hydrochloride hydrate]
- Ki [1]: 2.45 µM
- Ki (α2C receptor; pKi alpha-2 2c): 1.38 µM
- Ki (L-type calcium channel; pKi Ca): 6.61 µM

Structure (SMILES): COC(=O)C1=C(C)N(C)C(C)=C(C(=O)OCCCN2CCC(c3ccccc3)(c3ccccc3)CC2)C1c1ccc([N+](=O)[O-])cc1 (stereo not drawn) [Example 92, 1,4-Dihydro-5-methoxycarbonyl-1,2,6-trimethyl-4-(4-nitrophenyl)-3-[3-(4,4-diphenylpiperidin-1-yl)propoxy]carbonylpyridine hydrochloride hydrate]
- Ki [1]: 0.209 µM
- Ki (α2C receptor; pKi alpha-2 2c): 0.759 µM
- Ki (L-type calcium channel; pKi Ca): 4.17 µM

Structure (SMILES): CC1=C(C(N)=O)C(c2ccc(S(C)(=O)=O)cc2)C(C(=O)NCCCN2CCC(c3ccccc3)(c3ccccc3)CC2)=C(C)N1 (stereo not drawn) [Example 115, 5-Carboxamido-1,4-4-dihydro-4-(4-methanesufonylphenyl)-2,6-dimethyl-3-(N-(3-(4,4-diphenylpiperidin-1-yl)propyl)carboxamido)-pyridine]
- Ki [1, 5]: 2 µM
- Ki (α2C receptor; [8]): 2.29 µM
- Ki (L-type calcium channel; [7]): 1000 µM

Structure (SMILES): COc1ccc(C2(c3ccccc3)CCN(CCCNC(=O)C3=C(C)NC(C)=C(C(N)=O)C3c3ccc([N+](=O)[O-])cc3)CC2)cc1 (stereo not drawn) [Example 98, 5-Carboxamido-1,4-dihydro-3-{N-[3-(4-(4-methoxyphenyl)-4-phenylpiperidin-1-yl)propyl]}carboxamido-2,6-dimethyl-4-(4-nitrophenyl)pyridine hydrochloride]
- Ki [1, 5]: 1.1 µM
- Ki (α2C receptor; [8]): 0.427 µM
- Ki (L-type calcium channel; [7]): 1000 µM

Structure (SMILES): CCC1=C(C(N)=O)C(c2ccc([N+](=O)[O-])cc2)C(C(=O)NCCCN2CCC(C#N)(c3ccccc3)CC2)=C(CC)N1 (racemic) [(±)-102, 5-Carboxamido-3-{N-[(4-cyano-4-phenylpiperidin-1-ly)propyl]carboxamido-2,6-diethyl-1,4-dihydro-4-(4-nitrophenyl)pyridine hydrochloride hydrate]
- Ki [1, 5]: 3.47 µM
- Ki (α2C receptor; [6]): 1.74 µM
- Ki (L-type calcium channel; [7]): 72.4 µM

Structure (SMILES): COC(=O)C1=C(C)NC(C)=C(C(=O)NCCCN2CCC(c3ccccc3)(c3ccccc3)CC2)C1c1ccc(I)cc1 (stereo not drawn) [Example 13, 1,4-Dihydro-4-(4-iodophenyl)-3-methoxycarbonyl-2,6-dimethyl-5-(N-(3-(4,4-diphenylpiperidin-1-yl)propyl)carboxamido)pyridine]
- Ki [1]: 0.389 µM
- Ki (α2C receptor; pKi alpha-2 2c): 0.646 µM
- Ki (L-type calcium channel; pKi Ca): 8.91 µM

Structure (SMILES): COC(=O)C1=C(C)NC(c2ccccc2)=C(C(=O)NCCCN2CCC(c3ccccc3)(c3ccccc3)CC2)C1c1ccc([N+](=O)[O-])cc1 (stereo not drawn) [Example 78, 1,4-Dihydro-5-methoxycarbonyl-6-methyl-4-(4-nitro)phenyl-2-phenyl-3-(N-(3-(4,4-diphenylpiperidin-1-yl)propyl))carboxamidopyridine hydrochloride hydrate]
- Ki [1]: 0.178 µM
- Ki (α2C receptor; pKi alpha-2 2c): 0.151 µM
- Ki (L-type calcium channel; pKi Ca): 3.16 µM

Structure (SMILES): COC(=O)C1=C(C)NC(C)=C(C(=O)NCCCN2CCC(c3ccccc3)(c3ccccc3)CC2)C1c1ccc(-c2ccccc2)cc1 (stereo not drawn) [Example 7]
- Ki [1]: 1.17 µM
- Ki (α2C receptor; pKi alpha-2 2c): 1.23 µM
- Ki (L-type calcium channel; pKi Ca): 0.871 µM
